Experimental data: US12539296B2, “Montelukast for the treatment of erosive hand osteoarthritis” (MMC INTELLECTUAL PROPERTY INSTITUTE, S.L., priority 2018, dated 2026)

Key:
[1] = tested on: patient with erosive hand osteoarthritis; assay: Efficacy of topical treatment in one patient with erosive hand osteoarthritis (Example 6); assay type: in vivo, human; conditions: 12 weeks
Procedure: After a wash-up period of several weeks, the patient started treatment with a topical formulation prepared as disclosed in example 3, with a dosage of about 10 mg daily per hand, spread on the affected zone for a period of 12 weeks.

[2] = tested on: patients with erosive hand osteoarthritis; assay: Clinical study of oral 20 mg montelukast daily in patients non-respondent to 10 mg (Example 5); assay type: in vivo, human
Procedure: For this study, 9 patients were selected from the previous study (Example 4) among those who were non-respondents to the treatment (10 mg montelukast daily).
In the present study, the patients were administered a daily dose of montelukast of 20 mg by the oral route, also using an orally dispersible composition prepared as disclosed in Example 1, according to a once-daily dosage regimen. The age of the patients ranged from 52 to 78 years.
As in the previous study, for assessing the efficacy in pain relief, the visual analogue scale (VAS) methodology was used, where the pain was assessed on a scale of 0 to 10.
For assessing the efficacy in hand functionality improvement, also a visual analogue scale (VAS) of 0 to 10 was also used, wherein 0 meant full functionality, i.e., full ability to hold objects, and 10 meant absence of functionality, i.e., inability to hold any object
The “initial” values mean the values before starting the treatment, and the “final” values mean the values after completing the treatment.

patients aged ≥6 years = conditions: for example 200 mg/daily; cited from earlier work
[3] = tested on: patients with erosive hand osteoarthritis; assay: Clinical observational study of oral 10 mg montelukast daily in patients with erosive hand osteoarthritis (Example 4); assay type: in vivo, human; conditions: 10 mg daily oral, 3 to 16 months
Procedure: A preliminary clinical observational study was performed in patients suffering from erosive hand osteoarthritis.
50 patients with erosive hand osteoarthritis which were non-respondent or with limited response after treatment with analgesics and/or anti-inflammatories were selected for the study. The patients were administered 10 mg of montelukast daily by the oral route, using an orally dispersible composition prepared as disclosed in Example 1, according to a once-daily dosage regimen.
The following parameters were used to evaluate the efficacy of the treatment: (i) improvement in clinical symptoms; (ii) efficacy in pain relief; and (iii) improvement in radiological evaluation. All assessments were focused on one of the hands of the patients.
The improvement in clinical symptoms was assessed by evaluating the improvement in symptoms such as functionality, stiffness and deformity of the affected hand that entail an improvement in the quality of life of the patients.
For assessing the efficacy in pain relief, the patients were asked to evaluate the pain they felt using the visual analogue scale (VAS) methodology, both before the treatment and at the end of the treatment period.
For assessing the efficacy of the treatment in the radiological parameters of the hand, the following features in the affected joints were evaluated: a) edema, b) subchondral erosions, c) synovitis and d) tenosynovitis. These features were radiologically assessed by means of posteroanterior radiographs of the hand, performed before and after the treatment period. The treatment was considered to provide radiological improvement if there was observable improvement in at least two of the assessed features and no worsening in the remaining features.

[4] = 20 mg daily oral, beginning vs end of treatment
[5] = topical gel of example 3, about 10 mg daily per hand

Q: Which radiological assessment ([1]; topical, once daily) does the source give for `CCC(=O)O[C@]1(C(=O)COC(C)=O)CC[C@H]2[C@@H]3C[C@H](C)C4=CC(=O)C=C[C@]4(C)[C@H]3[C@@H](O)C[C@@]21C` [methylprednisolone aceponate] here?
A: progression of the disease

Q: What about the “pain score (VAS, 0-10 scale) remaining under treatment” value ([1]; topical, once daily, no improvement in pain relief) of the same compound?
A: higher than 5

Q: Which “proportion of patients not responding to 10 mg daily that showed pain relief” value ([2]; 20 mg daily oral) does the source give for `CC(C)(O)c1ccccc1CC[C@@H](SCC1(CC(=O)O)CC1)c1cccc(/C=C/c2ccc3ccc(Cl)cc3n2)c1` [montelukast, 2-[1-[[(1R)-1-[3-[(E)-2-(7-chloroquinolin-2-yl)ethenyl]phenyl]-3-[2-(2-hydroxypropan-2-yl)phenyl]propyl]sulfanylmethyl]cyclopropyl]acetic acid] here?
A: ~70%

Q: What about the adverse effects reported ([2]; 20 mg daily oral, 9 patients) of the same compound?
A: No adverse effects

Q: And the “improvement in hand functionality” value ([2]; 20 mg daily oral, all patients)?
A: 35%

Q: And the “pain relief in the responding patients” value ([2]; 20 mg daily oral, almost 70% of the patients)?
A: 55%

Q: And the “final VAS hand functionality score, mean” value [2, 4]?
A: 4.56±0.39

Q: And the “final VAS pain score, mean” value [2, 4]?
A: 3.89±0.54

Q: And the “VAS hand functionality final, Min - Max” value ([2]; after completing 20 mg daily oral treatment, individual values)?
A: 3-6

Q: What about the “VAS pain final, Min - Max” value ([2]; after completing 20 mg daily oral treatment, individual values, scale 0 to 10) of the same compound?
A: 1-6

Q: And the “VAS hand functionality final, Mean” value ([2]; after completing 20 mg daily oral treatment, scale 0 (full functionality) to 10 (absence))?
A: 4.56

Q: What about the “VAS pain final, Mean” value ([2]; after completing 20 mg daily oral treatment, scale 0 to 10, 9 patients) of the same compound?
A: 3.89

Q: And the “VAS hand functionality initial, Min - Max” value ([2]; before starting 20 mg daily oral treatment (baseline), individual values)?
A: 5-8

Q: What about the “VAS pain initial, Min - Max” value ([2]; before starting 20 mg daily oral treatment (baseline), individual values, scale 0 to 10) of the same compound?
A: 5-9

Q: What about the “VAS hand functionality initial, Mean” value ([2]; before starting 20 mg daily oral treatment (baseline), scale 0 (full functionality) to 10 (absence)) of the same compound?
A: 7.00

Q: And the “VAS pain initial, Mean” value ([2]; before starting 20 mg daily oral treatment (baseline), scale 0 to 10, 9 patients)?
A: 7.00

Q: What about the “adverse effects at high doses” value (patients aged ≥6 years) of the same compound?
A: does not cause adverse effects

Q: And the “additional patients with no worsening of the assessed radiological parameters” value [3]?
A: 10 patients

Q: And the “patients with improvement after radiological evaluation (at least two features improved, none worse)” value ([3]; of 50 patients, posteroanterior radiographs)?
A: 28 patients

Q: And the “patients reporting effective pain relief (VAS reduction of at least 2 units on 0 to 10 scale)” value ([3]; out of 45 patients with pain before treatment)?
A: 28 patients

Q: What about the “patients with improvement in edema” value ([3]; radiological evaluation) of the same compound?
A: 19 patients

Q: And the “patients with improvement in erosions” value ([3]; radiological evaluation)?
A: 14 patients

Q: What about the “patients with improvement in synovitis” value ([3]; radiological evaluation) of the same compound?
A: 28 patients

Q: And the “patients with improvement in tenosynovitis” value ([3]; radiological evaluation)?
A: 18 patients

Q: What about the “patients with improvement in clinical symptoms (functionality, stiffness, deformity)” value ([3]; once-daily, of 50 patients) of the same compound?
A: 32 patients

Q: And the “clinical symptoms of osteoarthritis” value [1, 5]?
A: improvement in the clinical symptoms

Q: What about the pain relief [1, 5] of the same compound?
A: significant pain relief
